Tests used:
Design in all cases: species or system human
[1] = Magnetic microrheometry: viscoelasticity (log G*) of CF sputum; conditions: for decrease in log G* (before minus after exposure): 20 min (FIG. 4A); for log G* after treatment: 37° C., 20 minutes; for log G* after treatment / log G* before treatment: mean ± standard error; for decline in viscoelasticity (log G*): Trx (30 μM), TR (0.1 μM); for log G* before treatment: baseline, 4 samples
Description: Viscoelastic change in response to treatment was measured by means of a magnetic microrheometer as developed by King (King M., Magnetic microrheometer. In: Methods in Bronchial Mucology, edited by Braga P C, and Allegra L. New York: Raven Press, 1988, p. 73-83). An 80-120 μm steel sphere was placed in a 10 mg sputum sample. An electromagnet was used to oscillate this sphere, whose image was projected onto a pair of photocells via a microscope. […] G* was the mechanical impedance or vector sum of viscosity and elasticity. For Trx and NADPH dose response experiments, log G* at 10 rad/s was measured before any treatment (baseline), and then after 20 minute incubation with no treatment, diluent (H2O), or Trx with reducing system. All treatments were administered to the sample in a volume of H2O equal to 10% of total sample volume. One measurement was performed per aliquot of sample.
Magnetic microrheometry was performed to determine the effect of Trx and its reducing system on sputum viscosity. Measurements were performed on sputum samples before and after incubation with the Trx reducing system (Table 1) to determine the change in log G* (viscoelasticity).
In the experiment shown in FIG. […] Each column represents the mean±standard error for 4 samples (♦Statistically significant from H2O diluent value). […]

[2] = Glycoprotein content of sputum aqueous and gel phases by PAS staining; conditions: 10 or 30 μM Trx with reducing system, 20 min (FIG. 5)
Description: Extraction of soluble glycoproteins from sputum was performed according to methodology outlined by Davies et al. (Davies and Carlstedt, Methods Mol Biol 125:3-13, 2000). 275 μl of CF sputum was treated for 20 minutes at 37° C. with 25 μl of H2O alone or H2O containing Trx (10 or 30 μM)+NADPH (2 mM) and TR (0.1 μM). After treatment, 100 μl of H2O containing 1 mM disopropylflurophosphate and 10 μg ml aprotinin, was added to each sample, followed by 15 minute centrifugation at 22,000 g at 4° C. The resulting supernatant (aqueous phase) of each sample was transferred to a new microcentrifuge tube and stored at −20° C. […]
The glycoprotein content of aqueous and gel phase samples were evaluated by staining with periodic acid Schiff reagent (PAS) according to methodology outlined by Thornton et al. (Thornton et al., Methods Mol Biol 125:77-85, 2000). […]
Disulfide bonds on mucin glycoprotein polymers are potential targets for reduction by Trx. […] After treatment, the resulting soluble and insoluble phases of each sample were separated and analyzed for glycoprotein content by periodic acid/Schiff reagent (PAS) staining Specifically, fractions were loaded and electrophoresed in a 1% agarose (w/v) gel, transferred to PVDF membrane, and stained with periodic acid/Schiff reagent as described in materials and methods. […]

DNA in CF sputum = assay: Total DNA content of sputum gel and liquid phases by Hoechst assay; conditions: Trx (30 μM) + reducing system, 20 min, mean ± S.D., n=5 (FIG. 6)
Description: 275 μl of CF sputum was incubated with no treatment, 25 μl of H2O, or 25 μl of H2O containing Trx (30 μM)+TR (0.1 μM) and NADPH (2 mM). After 20 minute incubation at 37° C., 100 μl of H2O was added to each sample, followed by centrifugation (22,000×g) for 10 minutes. Resulting gel and liquid phases were separated and incubated with an equal volume of digestion solution consisting of 100 mM Tris Cl, 5 mM EDTA, 200 mM NaCl, 0.5% Tween 20, and 1 mg/ml proteinase K for 4 hours at 50° C. DNA was purified from liquid and gel phases by phenol/chloroform extraction and resuspended in 100 μl of TE buffer, pH 8.0. DNA concentrations were determined by Hoechst assay (Labarca and Paigen, Anal Biochem 102:344-352, 1980) using an F-2000 fluorometer (Hitachi, Schaumburg, Ill.) with an excitation wavelength of […] and an emission wavelength of 555 nm. Salmon testis DNA, dissolved in TE buffer, was used to establish the standard curve.
The presence of high amounts of extracellular DNA in CF airway secretions contributes to the excessive viscoelasticity of CF sputum. To evaluate what effect Trx has on the solubility of DNA in sputum, sputum samples (275 μl) were incubated with either no additions, diluent (H2O), or Trx (30 μM)+reducing system for 20 minutes, and then separated into gel (insoluble) and liquid (soluble) phases. […]

Substance: Trx: Lyophilized recombinant E. coli Trx from Promega; protein disulfide reductase, used with its reducing system (TR + NADPH)
- decrease in log G* (before minus after exposure) ([1]; 3 μM Trx + 0.1 μM TR + 2 mM NADPH): 0.26 log units
- log G* after treatment ([1]; 3 μM Trx + 0.1 μM TR and 2 μM NADPH): 3.11 ± 0.04
- decrease in log G* (before minus after exposure) ([1]; 10 μM Trx + 0.1 μM TR + 2 mM NADPH): 0.39 log units
- log G* after treatment ([1]; 10 μM Trx + 0.1 μM TR and 2 μM NADPH): 2.94 ± 0.05
- decrease in log G* (before minus after exposure) ([1]; 30 μM Trx + 0.1 μM TR + 2 mM NADPH): 0.65 log units
- log G* after treatment ([1]; 30 μM Trx + 0.1 μM TR and 2 μM NADPH): 2.63 ± 0.04
- sputum viscoelasticity ([1]; 20 minute treatment with 3, 10, or 30 μM Trx): significantly diminished
- decline in viscoelasticity (log G*) ([1]; 0.2 mM NADPH (FIG. 4B)): 0.16 log units
- decline in viscoelasticity (log G*) ([1]; 0.6 mM NADPH (FIG. 4B)): 0.26 log units
- decline in viscoelasticity (log G*) ([1]; 2 mM NADPH (FIG. 4B)): 0.39 log units
- log G* before treatment ([1]; aliquots for 3 μM Trx): 3.37 ± 0.06
- log G* before treatment ([1]; aliquots for 10 μM Trx): 3.33 ± 0.06
- log G* before treatment ([1]; aliquots for 30 μM Trx): 3.28 ± 0.04
- amount of PAS-reactive glycoproteins in soluble and gel phases versus diluent [2]: greater amounts of PAS-reactive glycoproteins
- electrophoretic mobility of glycoforms versus diluent-treated samples [2]: greater electrophoretic mobility
- DNA content of gel (insoluble) phase (DNA in CF sputum): 0.55 ± 0.31 mg
- DNA content of liquid (soluble) phase (DNA in CF sputum): 0.57 ± 0.37 mg

— patent publication US9289471B2, “Product and process for liquefaction of mucus or sputum” (National Jewish Health, priority 2002, dated 2016)
